# PubChem BioAssay (NCI)
# “And” between values parts separate entries of the source, which are not always exact repeats. Equal entries are not always repeated.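 How tested: cells in 96-well plates exposed to compound for 48 hours at five concentrations. Abbreviation: GI50, concentration required for 50% inhibition of growth. TGI denotes the concentration required for complete inhibition of growth.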
# Tests used:
# Assay in all cases: NCI anticancer screen, dose series, 48 h
# ACHN renal = tested on: ACHN renal
# HL-60(TB) leukemia = tested on: HL-60(TB) leukemia
# IGROV1 ovarian = tested on: IGROV1 ovarian
# M14 melanoma = tested on: M14 melanoma
# NCI-H23 lung = tested on: NCI-H23 lung
# OVCAR-3 ovarian = tested on: OVCAR-3 ovarian
# RXF 393 renal = tested on: RXF 393 renal
# SK-MEL-28 melanoma = tested on: SK-MEL-28 melanoma
# SN12C renal = tested on: SN12C renal
# UACC-62 melanoma = tested on: UACC-62 melanoma
Structure (SMILES),TGI (ACHN renal) [µM],TGI (HL-60(TB) leukemia) [µM],TGI (IGROV1 ovarian) [µM],TGI (M14 melanoma) [µM],TGI (NCI-H23 lung) [µM],TGI (OVCAR-3 ovarian) [µM],TGI (RXF 393 renal),TGI (SK-MEL-28 melanoma) [µM],TGI (SN12C renal) [µM],TGI (UACC-62 melanoma) [µM],GI50 (ACHN renal) [µM],GI50 (HL-60(TB) leukemia) [µM],GI50 (IGROV1 ovarian) [µM],GI50 (M14 melanoma) [µM],GI50 (NCI-H23 lung) [µM],GI50 (OVCAR-3 ovarian) [µM],GI50 (RXF 393 renal) [µM],GI50 (SK-MEL-28 melanoma) [µM],GI50 (SN12C renal) [µM],GI50 (UACC-62 melanoma) [µM]
COc1ccc2oc3cccc(NCCN(C)C)c3c(=O)c2c1,23.2,27.6,31.2,29.4,32.7,28.5,26.4 µM,32.9,23.3,26.6,–,–,–,–,–,–,–,–,–,–
Fc1cccc(COc2ccc(Nc3ncnc4cc(-c5ccc[nH]5)sc34)cc2Cl)c1,> 16.8,3.22,11.7,> 23.4,> 25,2.99,6.62 µM,> 25,> 25,> 22.8,2.68,0.354,0.406,8.32,7.22,0.151,2.17,7.96,1.42,5.77
CN(C)C(=S)N=Nc1c(O)[nH]c2ccccc12,11.4,7.24,7.39,9.41,25,1.18,14.5 µM,22.7,17.9,4.56,0.526,1.32,0.508,0.484,0.656,0.261,1.05,2.57,0.578,0.578
CC(C)C1CC(O)O[C@@H]([C@@H](C)[C@H]2CC(=O)[C@@H]3[C@@H]4[C@@H](O)[C@H](O)[C@H]5[C@@H](O)[C@H](O)CC[C@]5(C)[C@H]4CC[C@]23C)C1 (some centres undefined),62.1,> 100,> 100,> 100,> 100,> 100,28.9 µM,> 100,> 100,> 100,–,–,–,–,–,–,–,–,–,–
CC1C(=O)C(C)C(c2ccccc2)N(N=O)C1c1ccccc1 (centres undefined),341,> 1000,> 673,> 581,> 779,685,> 68.4 µM and 171 µM,> 834,981,> 655,–,–,216,–,332,–,49.6,–,> 65.2,–
O=C1CC[C@@H](S(=O)(=O)c2ccccc2)[C@@H](/C=C/c2ccccc2)O1,> 100,> 100,> 100,> 100,> 100,> 100,> 100 µM,> 100,> 100,> 100,–,–,–,–,–,–,–,–,–,–
CN(C)CCOc1ccc2c(c1)C/C(=C/c1ncc([N+](=O)[O-])n1C)C2=O,4.71,71.7,1.49,5.71,4.94,6.27,3.69 µM,33.4,9.78,4.97,–,–,–,–,–,–,–,–,–,–
CCCCCCCCCc1cc(=O)c2ccc(O)cc2o1,> 100,38.2,> 100,> 100,> 100,> 100,> 100 µM,> 100,> 100,> 100,–,–,–,–,–,–,–,–,–,–
CC(C)CC1=[N+]=C(NC#N)N=C(CCC(=O)Nc2ccccc2[N+](=O)[O-])C1,> 100,> 100,> 100,> 100,> 100,> 100,> 100 µM,> 100,> 100,> 100,–,–,–,–,–,–,–,–,–,–
CN(C)c1ccc2cc(-c3ccccc3F)c(N)nc2c1,17.3,9.36,24.4,4.5,15.7,7.62,10.8 µM,19.6,19.2,12,3.8,0.419,2.81,0.448,2.89,0.922,2.53,2.57,4.55,0.89
COc1ccc2c3c(c(=O)n(C)c2c1OC)C=CC(C)(C)O3,27.5,29.8,> 100,> 100,84.9,> 100,> 100 µM,> 100,54.8,> 100,–,–,–,–,–,–,–,–,–,–
Cc1cccc(C(C)C)c1NC(=O)C(=O)CC(=O)c1c(C)n([O-])c2ccccc2[n+]1=O,> 100,> 100,> 100,95.3,51.3,22,> 100 µM,> 100,96.7,42.4,–,–,–,–,–,–,–,–,–,–
COc1cccc(C(=O)C2C(=O)N(C)CCc3ccccc32)c1OC (centres undefined),> 100,> 100,> 100,> 100,> 100,> 100,> 100 µM,> 100,> 100,> 100,–,–,–,–,–,–,–,–,–,–
